Structures are written as SMILES.

Chain of Mitogen-activated protein kinase 3 (P27361 whole entry): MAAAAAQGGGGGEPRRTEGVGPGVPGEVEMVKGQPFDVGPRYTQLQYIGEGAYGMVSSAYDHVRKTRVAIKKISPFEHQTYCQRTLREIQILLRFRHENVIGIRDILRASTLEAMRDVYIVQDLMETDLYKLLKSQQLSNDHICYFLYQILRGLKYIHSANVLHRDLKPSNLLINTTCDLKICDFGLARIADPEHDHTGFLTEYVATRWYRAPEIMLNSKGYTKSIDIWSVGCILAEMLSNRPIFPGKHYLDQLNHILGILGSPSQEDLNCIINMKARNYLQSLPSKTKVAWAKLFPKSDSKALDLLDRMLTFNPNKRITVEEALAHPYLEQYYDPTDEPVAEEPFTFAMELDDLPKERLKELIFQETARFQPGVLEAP
Chain of C-C chemokine receptor type 5 (P51681 whole entry): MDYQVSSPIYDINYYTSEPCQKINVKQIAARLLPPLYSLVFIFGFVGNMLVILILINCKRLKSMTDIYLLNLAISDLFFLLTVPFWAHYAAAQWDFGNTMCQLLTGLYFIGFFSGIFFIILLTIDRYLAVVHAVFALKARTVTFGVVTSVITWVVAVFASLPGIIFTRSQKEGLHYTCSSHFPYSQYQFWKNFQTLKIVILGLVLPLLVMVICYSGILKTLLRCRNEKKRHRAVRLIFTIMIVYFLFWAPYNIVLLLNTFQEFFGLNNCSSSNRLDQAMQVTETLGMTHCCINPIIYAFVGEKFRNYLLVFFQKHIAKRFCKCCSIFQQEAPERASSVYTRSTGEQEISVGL
Chain of Adenosine receptor A2a (P29274 whole entry): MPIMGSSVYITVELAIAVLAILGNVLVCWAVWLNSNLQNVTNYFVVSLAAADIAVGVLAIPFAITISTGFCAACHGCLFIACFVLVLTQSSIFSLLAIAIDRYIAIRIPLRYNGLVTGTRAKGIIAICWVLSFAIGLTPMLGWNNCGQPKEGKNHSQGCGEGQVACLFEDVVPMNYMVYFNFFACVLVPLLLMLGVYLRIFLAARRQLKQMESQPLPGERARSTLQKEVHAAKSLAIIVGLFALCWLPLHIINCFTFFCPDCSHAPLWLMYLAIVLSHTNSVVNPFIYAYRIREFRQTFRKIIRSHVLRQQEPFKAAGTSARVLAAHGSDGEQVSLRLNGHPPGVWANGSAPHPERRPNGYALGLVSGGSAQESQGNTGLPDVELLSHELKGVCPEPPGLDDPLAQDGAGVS

System in the first assay: not listed separately
Put plainly: DRUGMATRIX: Nicotinic Acetylcholine radioligand binding (ligand: [125I] Epibatidine). In kind it is cell membranes, Membrane. The conditions noted are these: imr-32; Not Active = under 50% inhibition at 10 µM.
`Cn1cnc([N+](=O)[O-])c1Sc1ncnc2nc[nH]c12` [AZATHIOPRINE]: the IC50 entry is “Not Active” and the Ki entry is reported as “Not Active”.

Take `CC(/C=C1\SC(=S)N(CC(=O)O)C1=O)=C\c1ccccc1`: the IC50 result was “Not Active” and the Ki entry was “Not Active”.

Turning to `N=C(N)NCCCCNC(=N)N.O=S(=O)(O)O` [ARCAINE SULFATE], the IC50 result is reported as “Not Active” and the Ki result was “Not Active”.

In the next assay the target is Substance-P receptor (Homo sapiens, UniProt P25103). Also: in other assays of this panel Not Active means under 50% inhibition at 10 µM.
Chain of Substance-P receptor (P25103 whole entry): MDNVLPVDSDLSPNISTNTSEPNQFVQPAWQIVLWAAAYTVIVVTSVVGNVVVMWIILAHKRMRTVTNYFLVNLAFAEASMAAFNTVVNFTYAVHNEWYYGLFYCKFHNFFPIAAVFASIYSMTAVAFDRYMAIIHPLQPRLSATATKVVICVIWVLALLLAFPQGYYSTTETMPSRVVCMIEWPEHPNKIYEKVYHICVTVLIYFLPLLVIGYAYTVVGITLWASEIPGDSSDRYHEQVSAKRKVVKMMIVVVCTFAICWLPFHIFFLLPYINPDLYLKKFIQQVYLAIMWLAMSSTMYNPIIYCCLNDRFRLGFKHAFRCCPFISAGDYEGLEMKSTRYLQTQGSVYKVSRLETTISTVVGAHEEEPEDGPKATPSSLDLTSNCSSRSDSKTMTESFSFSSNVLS
Experiment: not given
In kind it is cell membranes, CHO, Membrane. As to conditions: cho.
In the case of `Cn1cnc([N+](=O)[O-])c1Sc1ncnc2nc[nH]c12` [AZATHIOPRINE], the IC50 entry was “Not Active”.

Consider `CC(/C=C1\SC(=S)N(CC(=O)O)C1=O)=C\c1ccccc1`, for which the IC50 result was “Not Active”.

Take `N=C(N)NCCCCNC(=N)N.O=S(=O)(O)O` [ARCAINE SULFATE]: the IC50 result is listed as “Not Active”.

System in a further assay: not listed separately
Nature of the assay: DRUGMATRIX: GABAA, Muscimol, Central radioligand binding (ligand: [3H] Muscimol). The conditions noted are these: Not Active = under 50% inhibition at 10 µM. In kind it is cell membranes, Rattus norvegicus, Wistar, Brain, Membrane.
For the compound `Cn1cnc([N+](=O)[O-])c1Sc1ncnc2nc[nH]c12` [AZATHIOPRINE], the IC50 result was “Not Active” and the Ki result is listed as “Not Active”.

Take `CC(/C=C1\SC(=S)N(CC(=O)O)C1=O)=C\c1ccccc1`: the IC50 entry is reported as “Not Active” and the Ki result is recorded as “Not Active”.

Take `N=C(N)NCCCCNC(=N)N.O=S(=O)(O)O` [ARCAINE SULFATE]: the IC50 entry was “Not Active” and the Ki entry is on record as “Not Active”.

A further assay addresses T1, Calcitonin receptor (Homo sapiens, UniProt P30988).
T1 sequence (P30988 whole entry): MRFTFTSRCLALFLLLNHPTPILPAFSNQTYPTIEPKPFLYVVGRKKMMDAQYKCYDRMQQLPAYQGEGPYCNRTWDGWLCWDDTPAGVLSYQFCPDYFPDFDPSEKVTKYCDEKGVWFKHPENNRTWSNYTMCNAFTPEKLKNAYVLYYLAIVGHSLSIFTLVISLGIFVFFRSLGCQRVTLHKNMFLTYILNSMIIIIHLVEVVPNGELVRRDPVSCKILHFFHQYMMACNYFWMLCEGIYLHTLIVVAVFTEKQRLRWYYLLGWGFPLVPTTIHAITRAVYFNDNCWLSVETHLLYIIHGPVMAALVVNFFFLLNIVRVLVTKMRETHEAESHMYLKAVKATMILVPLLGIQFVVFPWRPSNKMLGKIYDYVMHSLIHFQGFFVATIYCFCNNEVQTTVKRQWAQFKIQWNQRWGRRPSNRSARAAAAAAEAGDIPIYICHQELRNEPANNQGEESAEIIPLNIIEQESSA
Experiment: not given
In kind it is cell membranes, Membrane. The conditions noted are these: t47d.
On to `Cn1cnc([N+](=O)[O-])c1Sc1ncnc2nc[nH]c12` [AZATHIOPRINE], for which the IC50 entry is on record as “Not Active”.

As for `CC(/C=C1\SC(=S)N(CC(=O)O)C1=O)=C\c1ccccc1`, the IC50 result is on record as “Not Active”.

On to `N=C(N)NCCCCNC(=N)N.O=S(=O)(O)O` [ARCAINE SULFATE], for which the IC50 entry was “Not Active”.

System in a further assay: not listed separately
Put plainly: DRUGMATRIX: Potassium Channel [KATP] radioligand binding (ligand: [3H] Glyburide). In kind it is cell membranes, Membrane. The conditions noted are these: hit-t15; Not Active = under 50% inhibition at 10 µM.
`Cn1cnc([N+](=O)[O-])c1Sc1ncnc2nc[nH]c12` [AZATHIOPRINE]: the IC50 result was “Not Active” and the Ki entry is reported as “Not Active”.

As for `CC(/C=C1\SC(=S)N(CC(=O)O)C1=O)=C\c1ccccc1`, the IC50 result is recorded as “Not Active” and the Ki result was “Not Active”.

Turning to `N=C(N)NCCCCNC(=N)N.O=S(=O)(O)O` [ARCAINE SULFATE], the IC50 result is recorded as “Not Active” and the Ki entry is given as “Not Active”.

Another assay concerns the target Glycine receptor (Rattus norvegicus, UniProt P22771+P24524+P07727+P20781). Also: in other assays of this panel Not Active means under 50% inhibition at 10 µM.
Experiment: not given
Type of assay: cell membranes, Wistar, Spinal cord, Membrane.
Conditions: not given
With `Cn1cnc([N+](=O)[O-])c1Sc1ncnc2nc[nH]c12` [AZATHIOPRINE], the IC50 entry is “Not Active”.

With `CC(/C=C1\SC(=S)N(CC(=O)O)C1=O)=C\c1ccccc1`, the IC50 result is listed as “Not Active”.

In the case of `N=C(N)NCCCCNC(=N)N.O=S(=O)(O)O` [ARCAINE SULFATE], the IC50 result is “Not Active”.

The next assay concerns the target Mitogen-activated protein kinase 3 (Homo sapiens, UniProt P27361). Put plainly: DRUGMATRIX: Protein Serine/Threonine Kinase, ERK1 enzyme inhibition (substrate: Myelin Basic Protein). Also noted: species or system Escherichia coli. As to conditions: Not Active = under 50% inhibition at 10 µM.
On to `Cn1cnc([N+](=O)[O-])c1Sc1ncnc2nc[nH]c12` [AZATHIOPRINE], for which the IC50 result is reported as “Not Active”.

As for `CC(/C=C1\SC(=S)N(CC(=O)O)C1=O)=C\c1ccccc1`, the IC50 entry is “Not Active”.

Take `N=C(N)NCCCCNC(=N)N.O=S(=O)(O)O` [ARCAINE SULFATE]: the IC50 entry is “Not Active”.

The target in another assay is T2, Angiotensin-converting enzyme (Oryctolagus cuniculus, UniProt P12822).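 Also: enzymatic inhibition of angiotensin-converting enzyme measured with FAPGG as the substrate; in other assays of this panel Not Active means under 50% inhibition at 10 µM.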
T2 sequence (P12822 whole entry): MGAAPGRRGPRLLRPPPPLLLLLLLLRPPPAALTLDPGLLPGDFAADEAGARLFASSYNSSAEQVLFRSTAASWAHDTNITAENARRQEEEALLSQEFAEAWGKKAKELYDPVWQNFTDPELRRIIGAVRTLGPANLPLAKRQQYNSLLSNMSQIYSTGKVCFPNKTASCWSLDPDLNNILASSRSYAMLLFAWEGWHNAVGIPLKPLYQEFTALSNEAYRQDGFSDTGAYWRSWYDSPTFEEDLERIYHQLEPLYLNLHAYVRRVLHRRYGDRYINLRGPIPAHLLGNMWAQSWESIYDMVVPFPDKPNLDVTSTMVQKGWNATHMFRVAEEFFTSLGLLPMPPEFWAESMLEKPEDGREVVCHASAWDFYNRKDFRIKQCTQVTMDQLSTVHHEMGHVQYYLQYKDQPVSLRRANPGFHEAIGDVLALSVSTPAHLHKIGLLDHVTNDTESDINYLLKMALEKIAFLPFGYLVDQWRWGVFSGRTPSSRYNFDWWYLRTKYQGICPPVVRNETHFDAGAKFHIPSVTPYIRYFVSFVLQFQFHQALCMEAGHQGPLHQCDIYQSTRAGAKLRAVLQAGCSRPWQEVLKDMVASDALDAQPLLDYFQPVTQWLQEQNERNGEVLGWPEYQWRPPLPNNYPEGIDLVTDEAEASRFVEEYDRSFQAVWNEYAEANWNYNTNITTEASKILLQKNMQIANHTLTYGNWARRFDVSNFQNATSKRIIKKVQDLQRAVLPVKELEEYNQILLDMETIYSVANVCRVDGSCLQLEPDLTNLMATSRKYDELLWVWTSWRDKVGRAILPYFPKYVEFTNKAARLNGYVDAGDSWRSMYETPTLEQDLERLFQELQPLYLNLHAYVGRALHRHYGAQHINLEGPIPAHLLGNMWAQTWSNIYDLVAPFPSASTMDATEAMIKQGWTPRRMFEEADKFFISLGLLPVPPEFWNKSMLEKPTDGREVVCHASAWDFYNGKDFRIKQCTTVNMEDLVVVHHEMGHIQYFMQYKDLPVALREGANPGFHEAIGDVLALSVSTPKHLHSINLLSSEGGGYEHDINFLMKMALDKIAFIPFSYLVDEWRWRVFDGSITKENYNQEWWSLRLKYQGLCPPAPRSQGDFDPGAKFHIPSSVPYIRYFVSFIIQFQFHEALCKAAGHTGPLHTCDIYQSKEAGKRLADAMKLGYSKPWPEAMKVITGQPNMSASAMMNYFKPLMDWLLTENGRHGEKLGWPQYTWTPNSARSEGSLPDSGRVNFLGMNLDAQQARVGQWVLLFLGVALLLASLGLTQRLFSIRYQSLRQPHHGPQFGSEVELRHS
Put plainly: biochemical. In kind it is tissue-based, Lung.
Conditions: not given
Regarding `Cn1cnc([N+](=O)[O-])c1Sc1ncnc2nc[nH]c12` [AZATHIOPRINE], the IC50 result is listed as “Not Active”.

For the compound `CC(/C=C1\SC(=S)N(CC(=O)O)C1=O)=C\c1ccccc1`, the IC50 result is on record as “Not Active”.

Take `N=C(N)NCCCCNC(=N)N.O=S(=O)(O)O` [ARCAINE SULFATE]: the IC50 result is on record as “Not Active”.

A further assay concerns the target T3, Substance-K receptor (Homo sapiens, UniProt P21452). Also: in other assays of this panel Not Active means under 50% inhibition at 10 µM.
T3 sequence (P21452 whole entry): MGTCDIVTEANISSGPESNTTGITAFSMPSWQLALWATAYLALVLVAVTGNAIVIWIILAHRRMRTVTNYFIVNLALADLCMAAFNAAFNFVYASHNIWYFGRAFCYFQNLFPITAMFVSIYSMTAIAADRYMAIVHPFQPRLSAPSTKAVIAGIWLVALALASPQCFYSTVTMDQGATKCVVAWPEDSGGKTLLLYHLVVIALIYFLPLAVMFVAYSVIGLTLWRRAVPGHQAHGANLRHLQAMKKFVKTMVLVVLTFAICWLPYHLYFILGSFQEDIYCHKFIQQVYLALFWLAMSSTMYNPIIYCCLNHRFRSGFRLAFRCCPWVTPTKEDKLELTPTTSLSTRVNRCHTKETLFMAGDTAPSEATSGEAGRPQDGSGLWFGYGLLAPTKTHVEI
Experiment: not given
Type of assay: cell membranes, CHO, Membrane. The conditions noted are these: cho.
Turning to `Cn1cnc([N+](=O)[O-])c1Sc1ncnc2nc[nH]c12` [AZATHIOPRINE], the IC50 entry was “Not Active”.

As to `CC(/C=C1\SC(=S)N(CC(=O)O)C1=O)=C\c1ccccc1`, the IC50 result is given as “Not Active”.

As for `N=C(N)NCCCCNC(=N)N.O=S(=O)(O)O` [ARCAINE SULFATE], the IC50 entry is on record as “Not Active”.

The next assay has as its target Adenosine receptor A2a (Homo sapiens, UniProt P29274). Nature of the assay: DRUGMATRIX: Adenosine A2A radioligand binding (ligand: […]). As to conditions: hek293; Not Active = under 50% inhibition at 10 µM. Type of assay: cell membranes, HEK293, Membrane.
Consider `Cn1cnc([N+](=O)[O-])c1Sc1ncnc2nc[nH]c12` [AZATHIOPRINE], for which the IC50 entry is reported as “Not Active”.

For the compound `CC(/C=C1\SC(=S)N(CC(=O)O)C1=O)=C\c1ccccc1`, the IC50 entry is on record as “Not Active”.

For the compound `N=C(N)NCCCCNC(=N)N.O=S(=O)(O)O` [ARCAINE SULFATE], the IC50 entry was “Not Active”.

System in a further assay: not listed separately
Nature of the assay: DRUGMATRIX: Interleukin IL-1 radioligand binding (ligand: [125I] interleukin 1beta). Type of assay: cell membranes, Membrane. The conditions noted are these: nih3t3; Not Active = under 50% inhibition at 10 µM.
As for `Cn1cnc([N+](=O)[O-])c1Sc1ncnc2nc[nH]c12` [AZATHIOPRINE], the IC50 entry was “Not Active” and the Ki entry is given as “Not Active”.

Turning to `CC(/C=C1\SC(=S)N(CC(=O)O)C1=O)=C\c1ccccc1`, the IC50 entry is reported as “Not Active” and the Ki entry was “Not Active”.

As to `N=C(N)NCCCCNC(=N)N.O=S(=O)(O)O` [ARCAINE SULFATE], the IC50 result was “Not Active” and the Ki result is recorded as “Not Active”.

Another assay has as its target C-C chemokine receptor type 5 (Homo sapiens, UniProt P51681). Also: in other assays of this panel Not Active means under 50% inhibition at 10 µM.
Experiment: not given
The conditions noted are these: hek293. In kind it is cell membranes, Membrane.
Consider `Cn1cnc([N+](=O)[O-])c1Sc1ncnc2nc[nH]c12` [AZATHIOPRINE], for which the IC50 entry is recorded as “Not Active”.

With `CC(/C=C1\SC(=S)N(CC(=O)O)C1=O)=C\c1ccccc1`, the IC50 entry was “Not Active”.

`N=C(N)NCCCCNC(=N)N.O=S(=O)(O)O` [ARCAINE SULFATE]: the IC50 result is reported as “Not Active”.

The record behind these values is ChEMBL document CHEMBL1909046, “DrugMatrix in vitro pharmacology data”.
